Calls of active or inactive are those of the source. The rule behind the calls is not given here.
Legend:
[1] = Stability in 1% human serum assessed as full length product after 10 mins; assay type: ADME, cell-free
[2] = target: T1, Toll-like receptor 7 (Homo sapiens) (UniProt Q9NYK1); assay: Activation of human TLR7 expressed in HEK293 cells assessed as increase in NF-kappaB activation at 100 ug/ml by SEAP assay; assay type: cell-based
T1 sequence (whole entry): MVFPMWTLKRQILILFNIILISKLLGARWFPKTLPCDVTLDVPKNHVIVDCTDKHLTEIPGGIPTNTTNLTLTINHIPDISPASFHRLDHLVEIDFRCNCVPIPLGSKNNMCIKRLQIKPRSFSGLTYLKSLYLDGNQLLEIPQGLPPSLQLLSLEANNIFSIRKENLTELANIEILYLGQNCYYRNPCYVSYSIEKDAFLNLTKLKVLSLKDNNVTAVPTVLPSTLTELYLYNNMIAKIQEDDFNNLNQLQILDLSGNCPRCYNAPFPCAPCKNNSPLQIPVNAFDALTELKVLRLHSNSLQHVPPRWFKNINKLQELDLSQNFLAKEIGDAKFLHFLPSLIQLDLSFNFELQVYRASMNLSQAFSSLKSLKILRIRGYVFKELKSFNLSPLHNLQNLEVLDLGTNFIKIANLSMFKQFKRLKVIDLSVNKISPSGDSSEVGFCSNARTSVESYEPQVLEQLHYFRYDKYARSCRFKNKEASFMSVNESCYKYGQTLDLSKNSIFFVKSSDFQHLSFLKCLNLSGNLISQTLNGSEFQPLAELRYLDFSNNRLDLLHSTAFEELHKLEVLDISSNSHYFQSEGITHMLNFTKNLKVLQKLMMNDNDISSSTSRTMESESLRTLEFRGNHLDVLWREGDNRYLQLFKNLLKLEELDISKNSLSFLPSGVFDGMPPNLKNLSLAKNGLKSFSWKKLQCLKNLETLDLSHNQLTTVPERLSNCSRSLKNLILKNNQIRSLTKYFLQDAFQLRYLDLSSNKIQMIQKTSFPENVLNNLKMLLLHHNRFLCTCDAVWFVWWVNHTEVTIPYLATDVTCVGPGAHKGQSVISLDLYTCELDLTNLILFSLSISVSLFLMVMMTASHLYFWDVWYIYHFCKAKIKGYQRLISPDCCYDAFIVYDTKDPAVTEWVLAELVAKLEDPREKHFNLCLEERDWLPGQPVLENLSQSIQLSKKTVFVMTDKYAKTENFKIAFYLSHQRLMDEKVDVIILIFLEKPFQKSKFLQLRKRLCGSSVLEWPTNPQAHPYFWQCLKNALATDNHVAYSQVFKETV

[3] = target: T2, Toll-like receptor 8 (Homo sapiens) (UniProt Q9NR97); assay: Activation of human TLR8 expressed in HEK293 cells assessed as increase in NF-kappaB activation at 100 ug/ml by SEAP assay; assay type: cell-based
T2 sequence (whole entry): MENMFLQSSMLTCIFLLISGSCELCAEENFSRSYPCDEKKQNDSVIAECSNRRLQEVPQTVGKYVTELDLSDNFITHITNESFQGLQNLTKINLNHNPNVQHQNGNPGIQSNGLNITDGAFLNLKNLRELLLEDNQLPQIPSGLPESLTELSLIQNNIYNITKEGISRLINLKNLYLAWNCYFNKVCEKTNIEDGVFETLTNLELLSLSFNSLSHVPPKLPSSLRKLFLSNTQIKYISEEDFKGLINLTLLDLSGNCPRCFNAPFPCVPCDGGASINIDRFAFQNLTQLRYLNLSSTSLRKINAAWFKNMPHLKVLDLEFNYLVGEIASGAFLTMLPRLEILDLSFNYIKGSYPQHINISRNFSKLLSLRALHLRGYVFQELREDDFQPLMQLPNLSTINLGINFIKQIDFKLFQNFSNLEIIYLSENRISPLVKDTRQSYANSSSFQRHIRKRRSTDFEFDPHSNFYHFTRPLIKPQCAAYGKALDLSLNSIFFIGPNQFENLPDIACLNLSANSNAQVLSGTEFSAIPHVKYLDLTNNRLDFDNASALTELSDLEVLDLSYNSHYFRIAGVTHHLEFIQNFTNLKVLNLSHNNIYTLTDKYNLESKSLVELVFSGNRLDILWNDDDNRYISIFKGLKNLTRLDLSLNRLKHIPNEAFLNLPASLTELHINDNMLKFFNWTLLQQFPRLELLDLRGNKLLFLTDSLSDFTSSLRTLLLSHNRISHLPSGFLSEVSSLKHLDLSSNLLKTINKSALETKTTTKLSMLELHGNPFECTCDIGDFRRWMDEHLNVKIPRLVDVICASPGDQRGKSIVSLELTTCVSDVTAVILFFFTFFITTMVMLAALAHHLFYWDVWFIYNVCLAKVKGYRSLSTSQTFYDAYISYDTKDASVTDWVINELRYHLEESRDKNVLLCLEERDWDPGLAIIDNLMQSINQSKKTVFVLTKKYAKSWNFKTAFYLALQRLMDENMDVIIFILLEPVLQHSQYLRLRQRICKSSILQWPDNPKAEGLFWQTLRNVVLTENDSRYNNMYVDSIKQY

SMILES | remaining at 10 min ([1]; read-out: Stability) [%] | Activity [2] | remaining at 10 min ([1]; read-out: Activity) [%] | Activity [3]
Nc1ccn([C@@H]2O[C@H](COP(O)(=S)O[C@H]3[C@@H](O)[C@H](n4ccc(=O)[nH]c4=O)O[C@@H]3COP(O)(=S)O[C@H]3[C@@H](O)[C@H](n4ccc(N)nc4=O)O[C@@H]3COP(O)(=S)O[C@H]3[C@@H](O)[C@H](n4cnc5c(N)ncnc54)O[C@@H]3COP(O)(=S)O[C@H]3[C@@H](O)[C@H](n4cnc5c(=O)[nH]c(N)nc54)O[C@@H]3COP(O)(=S)O[C@H]3[C@@H](O)[C@H](n4ccc(=O)[nH]c4=O)O[C@@H]3COP(O)(=S)O[C@H]3[C@@H](O)[C@H](n4cnc5c(=O)[nH]c(N)nc54)O[C@@H]3COP(O)(=S)O[C@H]3[C@@H](O)[C@H](n4ccc(=O)[nH]c4=O)O[C@@H]3COP(O)(=S)O[C@H]3[C@@H](O)[C@H](n4cnc5c(=O)[nH]c(N)nc54)O[C@@H]3COP(O)(=S)O[C@H]3[C@@H](O)[C@H](n4ccc(=O)[nH]c4=O)O[C@@H]3COP(O)(=S)O[C@H]3[C@@H](O)[C@H](n4ccc(=O)[nH]c4=O)O[C@@H]3COP(O)(=S)O[C@H]3[C@@H](O)[C@H](n4cnc5c(=O)[nH]c(N)nc54)O[C@@H]3COP(O)(=S)O[C@H]3[C@@H](O)[C@H](n4ccc(=O)[nH]c4=O)O[C@@H]3COP(O)(=S)O[C@H]3[C@@H](O)[C@H](n4ccc(N)nc4=O)O[C@@H]3COP(O)(=S)O[C@H]3[C@@H](O)[C@H](n4ccc(=O)[nH]c4=O)O[C@@H]3COP(O)(=S)O[C@H]3[C@@H](O)[C@H](n4cnc5c(=O)[nH]c(N)nc54)O[C@@H]3COP(O)(=S)O[C@H]3[C@@H](O)[C@H](n4ccc(N)nc4=O)O[C@@H]3COP(O)(=S)O[C@H]3[C@@H](O)[C@H](n4ccc(N)nc4=O)O[C@@H]3COP(O)(=S)O[C@H]3[C@@H](O)[C@H](n4ccc(N)nc4=O)O[C@@H]3COP(O)(=S)O[C@H]3[C@@H](O)[C@H](n4cnc5c(=O)[nH]c(N)nc54)O[C@@H]3CO)[C@@H](O)[C@H]2O)c(=O)n1 (stereo partly specified) | 47 | inactive |  | 
Nc1ccn([C@@H]2O[C@H](COP(O)(=S)O[C@H]3[C@@H](O)[C@H](n4ccc(N)nc4=O)O[C@@H]3COP(O)(=S)O[C@H]3[C@@H](O)[C@H](n4cnc5c(=O)[nH]c(N)nc54)O[C@@H]3COP(O)(=S)O[C@H]3[C@@H](O)[C@H](n4ccc(N)nc4=O)O[C@@H]3COP(O)(=S)O[C@H]3[C@@H](O)[C@H](n4ccc(=O)[nH]c4=O)O[C@@H]3COP(O)(=S)O[C@H]3[C@@H](O)[C@H](n4cnc5c(N)ncnc54)O[C@@H]3COP(O)(=S)O[C@H]3[C@@H](O)[C@H](n4ccc(N)nc4=O)O[C@@H]3COP(O)(=S)O[C@H]3[C@@H](O)[C@H](n4cnc5c(N)ncnc54)O[C@@H]3COP(O)(=S)O[C@H]3[C@@H](O)[C@H](n4cnc5c(=O)[nH]c(N)nc54)O[C@@H]3COP(O)(=S)O[C@H]3[C@@H](O)[C@H](n4cnc5c(N)ncnc54)O[C@@H]3COP(O)(=S)O[C@H]3[C@@H](O)[C@H](n4cnc5c(N)ncnc54)O[C@@H]3CO)[C@@H](OP(O)(=S)OC[C@H]3O[C@@H](n4ccc(=O)[nH]c4=O)[C@H](O)[C@@H]3OP(O)(=S)OC[C@H]3O[C@@H](n4cnc5c(=O)[nH]c(N)nc54)[C@H](O)[C@@H]3OP(O)(=S)OC[C@H]3O[C@@H](n4cnc5c(=O)[nH]c(N)nc54)[C@H](O)[C@@H]3OP(O)(=S)OC[C@H]3O[C@@H](n4ccc(=O)[nH]c4=O)[C@H](O)[C@@H]3OP(O)(=S)OC[C@H]3O[C@@H](n4ccc(=O)[nH]c4=O)[C@H](O)[C@@H]3OP(O)(=S)OC[C@H]3O[C@@H](n4cnc5c(N)ncnc54)[C@H](O)[C@@H]3O)[C@H]2O)c(=O)n1 (stereo partly specified) | 1 | inactive |  | 
Nc1ccn([C@@H]2O[C@H](CO)[C@@H](OP(O)(=S)OC[C@H]3O[C@@H](n4ccc(=O)[nH]c4=O)[C@H](O)[C@@H]3OP(O)(=S)OC[C@H]3O[C@@H](n4ccc(=O)[nH]c4=O)[C@H](O)[C@@H]3OP(O)(=S)OC[C@H]3O[C@@H](n4ccc(=O)[nH]c4=O)[C@H](O)[C@@H]3OP(O)(=S)OC[C@H]3O[C@@H](n4cnc5c(=O)[nH]c(N)nc54)[C@H](O)[C@@H]3OP(O)(=S)OC[C@H]3O[C@@H](n4cnc5c(=O)[nH]c(N)nc54)[C@H](O)[C@@H]3OP(O)(=S)OC[C@H]3O[C@@H](n4ccc(=O)[nH]c4=O)[C@H](O)[C@@H]3OP(O)(=S)OC[C@H]3O[C@@H](n4cnc5c(=O)[nH]c(N)nc54)[C@H](O)[C@@H]3OP(O)(=S)OC[C@H]3O[C@@H](n4ccc(=O)[nH]c4=O)[C@H](O)[C@@H]3OP(O)(=S)OC[C@H]3O[C@@H](n4cnc5c(=O)[nH]c(N)nc54)[C@H](O)[C@@H]3OP(O)(=S)OC[C@H]3O[C@@H](n4ccc(=O)[nH]c4=O)[C@H](O)[C@@H]3OP(O)(=S)OCC(O)COP(O)(=S)O[C@H]3[C@@H](O)[C@H](n4ccc(=O)[nH]c4=O)O[C@@H]3COP(O)(=S)O[C@H]3[C@@H](O)[C@H](n4cnc5c(=O)[nH]c(N)nc54)O[C@@H]3COP(O)(=S)O[C@H]3[C@@H](O)[C@H](n4ccc(=O)[nH]c4=O)O[C@@H]3COP(O)(=S)O[C@H]3[C@@H](O)[C@H](n4cnc5c(=O)[nH]c(N)nc54)O[C@@H]3COP(O)(=S)O[C@H]3[C@@H](O)[C@H](n4ccc(=O)[nH]c4=O)O[C@@H]3COP(O)(=S)O[C@H]3[C@@H](O)[C@H](n4cnc5c(=O)[nH]c(N)nc54)O[C@@H]3COP(O)(=S)O[C@H]3[C@@H](O)[C@H](n4cnc5c(=O)[nH]c(N)nc54)O[C@@H]3COP(O)(=S)O[C@H]3[C@@H](O)[C@H](n4ccc(=O)[nH]c4=O)O[C@@H]3COP(O)(=S)O[C@H]3[C@@H](O)[C@H](n4ccc(=O)[nH]c4=O)O[C@@H]3COP(O)(=S)O[C@H]3[C@@H](O)[C@H](n4ccc(=O)[nH]c4=O)O[C@@H]3COP(O)(=S)O[C@H]3[C@@H](O)[C@H](n4ccc(N)nc4=O)O[C@@H]3CO)[C@H]2O)c(=O)n1 (stereo partly specified) |  |  | 79 | inactive
